According to patent publication US4020076A, “Novel phosphoryloxy-thiazoles” (priority 1974, dated 1977):
Like-named read-outs stand apart in the source and are kept apart here.

What was measured:
Format in all cases: in vivo
[1] = system: Agrostis Segetum caterpillars; assay: Activity against Agrostis Segetum caterpillars
Method: i. Activity against Agrostis Segetum caterpillars
Larvae of Agrostis Segetum in the fifth stage were placed in small boxes whose bottom (26 cm on a side) is in the form of a square with a height of 20 cm. The boxes were filled with dirt to a height of 8 cm and 5 lettuce plants of about 15 cm high were planted and 10 caterpillars were placed in each box and after 3 hours, the boxes were each sprayed with 5 ml of an aqueous solution of the test product and the percent of efficacy is reported in Table IX.

Meloidogynes spec = assay: Nematocidal activity against Meloidogynes spec (tomato root galls); conditions: 250 Kg/ha
Method: a. Activity against Meloidogynes spec
A volume of about 3 liters of dirt infested with Meloidogynes spec was placed in a plastic sack. Nematocidal treatments are considered effective to a depth of 30 cm, a volume of 3 liters of dirt corresponding to a surface area of 100 cm^ 2 or 10^-^6 ha (since 100 cm^ 2 × 30 cm = 3000 ml or 3 liters). Each volume of infested dirt received 100 ml of an aqueous suspension containing 0.250 g of the test product (corresponding to 250 Kg/ha) and the controls received only 100 ml of water. The plastic sacks containing the dirt were immediately sealed after the treatment and then agitated to obtain a good distribution of the product. Two weeks after the treatment, the sacks were opened and the dirt was used to plant 3 tomato plants of St. Pierre variety. The plants used were raised in the greenhouse with dirt sterilized with heat to obtain plants free of nematodes. Three plants were used for each test which was run 6 times for each treatment. Two months after planting the tomatoes were removed from the dirt and the efficacy was determined by counting the number of galls observed on the roots. A correlation between the population of Meloidogynes in the pot and the number of galls exists.

Drosophila melanogaster = assay: Vapor activity against Drosophila melanogaster; conditions: inhaled or nasal, read-out: percentage of mortality
Method: a. Activity against Drosophila melanogaster
This test measures the vapor activity of the compounds and the less than 48 hours old insects were placed in a Petri dish with a 10 cm diameter connected by a tergal screen to a crystallizer of the same diameter in which the test compound in acetone solution is placed. The said solution is evaporated after the insects have been placed and 3 tests with 25 insects were run for each concentration. The results are expressed in Table I as a percentage of mortality after 1, 2, 4 and 6 hours.

Musca domestica = assay: Topical application activity against Musca domestica; conditions: read-out: percent of mortality
Method: d. Activity against Musca domestica
This topical application test consisted of placing a microliter of an acetone solution of the test product on the dorsal thorax of Musca domestica after having been put to sleep with ether. The insects were held at 20° C and 50% relative humidity and were fed milk and water.

Musca domestica larvae = assay: Contact-ingestion test against Musca domestica larvae; conditions: read-out: percent of mortality
Method: g. Activity against Musca domestica larvae
This contact-ingestion test consisted of placing 2 ml of an acetone solution of different concentrations of the test product on 1 g of bran placed in a watch glass and the solvent was evaporated. The treated bran was placed in a plastic dish and was admixed with 2 ml of milk. 20 3 to 4 day old larvae of Musca domestica were added to the bran and were held at 20° C and 30% relative humidity and 3 tests were conducted for each concentration.

Blattella germanica = assay: Topical application activity against Blattella germanica; conditions: read-out: percent of mortality
Method: b. Activity against Blattella germanica
This test was a topical application in which adult male Blattella germanica received 2 microliters of an acetone solution of the test products between the second and third pair of paws. After this treatment, the test insects were held in a dim light at 20° C and were fed. The results expressed as percent of mortality in Table II were read 24 and 48 hours and 5 days after the treatment.

[2] = system: Ditylenchus Myceliophagus; assay: Acaricide activity, Ditylenchus Myceliophagus; conditions: 24 h, 0.1 g/l, read-out: Percent of mortality after 24 hours
Method: In an apparatus containing 10 ml of an aqueous solution of the test product, 0.5 ml of water containing about 2000 acariens of Ditylenchus Myceliophagus were added thereto and the percent of mortality was determined by a binocular magnifying glass after 24 hours.

Spodoptera littoralis = assay: Ingestion test against Spodoptera littoralis caterpillars; conditions: po, ingestion, read-out: percent of mortality
Method: e. Activity against Spodoptera littoralis
This test was effected with Spodoptera littoralis caterpillars 1 to 1.5 cm long and an average of 10 days old. In this ingestion test, 4 ml of an acetone solution of the test products was placed on lettuce rings with an 8 mm diameter which were placed in closed plastic dishes with a 5 cm diameter. 15 caterpillars were placed in each dish and were held at 20° C and 50% relative humidity and were fed when the insects had eaten the treated lettuce ring.

Sitophilus granarius = assay: Topical application test against Sitophilus granarius; conditions: read-out: percent mortality
Method: c. Test against Sitophilus granarius
This topical application test comprised preparing the test compounds in acetone solution at concentrations of 5000, 500 and 50 mg of the active compound per liter and 0.2 μl of the solutions were applied to the ventral thorax of 50 Sitophilus granarius for each concentration.

CCOc1nc(OP(=S)(OC)OC)c(C#N)s1 [Compound C, 2-ethoxy-4-dimethoxythiophosphoryloxy-5-cyano-thiazole]
66.8%: mortality at 100 µg/mL [2]
32.77: Number of galls per foot (Meloidogynes spec; control 44.4)
0%: mortality at 125 ppm (Spodoptera littoralis; 1 H) | mortality at 250 ppm (Spodoptera littoralis; 1 H) | mortality at 500 ppm (Spodoptera littoralis; 1 H) | mortality at 50 ppm (Sitophilus granarius; 4 H) | mortality at 500 ppm (Sitophilus granarius; 4 H) | mortality at 50 ppm (Sitophilus granarius; 24 H) | mortality at 50 ppm (Sitophilus granarius; 120 h, 5 Days)
67.4%: Relative efficacity in % as compound to controls (Meloidogynes spec)
43%: mortality at 500 ppm (Musca domestica larvae; 48 H)
73%: mortality at 5000 ppm (Musca domestica larvae; 192 h, 8 Days)
25%: Emax ([1]; 72 h, read-out: % efficacy after 3 days, 100 g/hl)
53%: mortality at 5000 ppm (Musca domestica larvae; 48 H)
80%: Emax ([1]; 72 h, 150 g/hl, read-out: % efficacy after 3 days) | mortality at 312.5 ppm (Blattella germanica; 24 H) | mortality at 312.5 ppm (Blattella germanica; 48 H) | mortality at 312.5 ppm (Blattella germanica; 120 h, 5 Days) | mortality at 250 ppm (Spodoptera littoralis; 24 H) | mortality at 250 ppm (Spodoptera littoralis; 48 H)
96%: mortality at 500 ppm (Sitophilus granarius; 120 h, 5 Days)
70%: mortality at 125 ppm (Spodoptera littoralis; 24 H) | mortality at 125 ppm (Spodoptera littoralis; 48 H)
98%: mortality at 5 ppm (Drosophila melanogaster; 1 H)
97%: mortality at 500 ppm (Musca domestica; 24 h)
54%: mortality at 500 ppm (Sitophilus granarius; 24 H)
100%: Emax ([1]; 120 h, 50 g/hl, read-out: % efficacy after 5 days) | Emax ([1]; 120 h, 150 g/hl, read-out: % efficacy after 5 days) | Emax ([1]; 168 h, 50 g/hl, read-out: % efficacy after 7 days) | Emax ([1]; 168 h, 150 g/hl, read-out: % efficacy after 7 days) | Emax ([1]; 168 h, read-out: % efficacy after 7 days, 100 g/hl) | mortality at 50 ppm (Drosophila melanogaster; 1 H) | mortality at 500 ppm (Drosophila melanogaster; 1 H) | mortality at 5 ppm (Drosophila melanogaster; 4 H) | mortality at 50 ppm (Drosophila melanogaster; 4 H) | mortality at 500 ppm (Drosophila melanogaster; 4 H) | mortality at 5 ppm (Drosophila melanogaster; 6 H) | mortality at 50 ppm (Drosophila melanogaster; 6 H) | mortality at 500 ppm (Drosophila melanogaster; 6 H) | mortality at 500 ppm (Musca domestica; 1 H, 500 ppm) | mortality at 2500 ppm (Musca domestica; 1 H, 2500 ppm) | mortality at 5000 ppm (Musca domestica; 1 H, 5000 ppm) | mortality at 2500 ppm (Musca domestica; 24 h) | mortality at 5000 ppm (Musca domestica; 24 h) | mortality at 625 ppm (Blattella germanica; 24 H) | mortality at 1250 ppm (Blattella germanica; 24 H) | mortality at 625 ppm (Blattella germanica; 48 H) | mortality at 1250 ppm (Blattella germanica; 48 H) | mortality at 625 ppm (Blattella germanica; 120 h, 5 Days) | mortality at 1250 ppm (Blattella germanica; 120 h, 5 Days) | mortality at 500 ppm (Spodoptera littoralis; 24 H) | mortality at 500 ppm (Spodoptera littoralis; 48 H) | mortality at 5000 ppm (Sitophilus granarius; 4 H) | mortality at 5000 ppm (Sitophilus granarius; 24 H) | mortality at 5000 ppm (Sitophilus granarius; 120 h, 5 Days)
63%: mortality at 500 ppm (Musca domestica larvae; 192 h, 8 Days)
295: Total number of galls (Meloidogynes spec; control 222)
50%: Emax ([1]; 72 h, 50 g/hl, read-out: % efficacy after 3 days) | Emax ([1]; 120 h, read-out: % efficacy after 5 days, 100 g/hl)
